What was measured:
[1] = target: 72 kDa type IV collagenase (Homo sapiens, UniProt P08253)
Description: Inhibition of human recombinant MMP2 using succinylated gelatin as substrate incubated for 30 mins prior to substrate addition measured after 60 mins

[2] = target: T1, Interstitial collagenase (Homo sapiens, UniProt P03956)
T1 sequence (P03956 whole entry): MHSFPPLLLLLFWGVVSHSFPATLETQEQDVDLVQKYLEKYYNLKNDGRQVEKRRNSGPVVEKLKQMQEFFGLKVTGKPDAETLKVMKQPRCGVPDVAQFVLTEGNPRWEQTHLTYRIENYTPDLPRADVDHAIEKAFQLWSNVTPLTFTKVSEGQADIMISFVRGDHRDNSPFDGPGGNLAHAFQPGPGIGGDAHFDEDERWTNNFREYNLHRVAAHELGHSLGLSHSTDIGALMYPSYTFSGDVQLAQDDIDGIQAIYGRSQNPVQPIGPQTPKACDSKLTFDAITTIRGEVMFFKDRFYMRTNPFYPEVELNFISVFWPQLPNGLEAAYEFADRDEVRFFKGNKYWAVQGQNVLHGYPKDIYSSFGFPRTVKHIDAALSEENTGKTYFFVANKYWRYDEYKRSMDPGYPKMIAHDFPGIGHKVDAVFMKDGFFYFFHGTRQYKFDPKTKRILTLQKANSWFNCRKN
Description: Inhibition of human recombinant MMP1 using succinylated gelatin as substrate incubated for 30 mins prior to substrate addition measured after 60 mins

Sequence of 72 kDa type IV collagenase (P08253 whole entry): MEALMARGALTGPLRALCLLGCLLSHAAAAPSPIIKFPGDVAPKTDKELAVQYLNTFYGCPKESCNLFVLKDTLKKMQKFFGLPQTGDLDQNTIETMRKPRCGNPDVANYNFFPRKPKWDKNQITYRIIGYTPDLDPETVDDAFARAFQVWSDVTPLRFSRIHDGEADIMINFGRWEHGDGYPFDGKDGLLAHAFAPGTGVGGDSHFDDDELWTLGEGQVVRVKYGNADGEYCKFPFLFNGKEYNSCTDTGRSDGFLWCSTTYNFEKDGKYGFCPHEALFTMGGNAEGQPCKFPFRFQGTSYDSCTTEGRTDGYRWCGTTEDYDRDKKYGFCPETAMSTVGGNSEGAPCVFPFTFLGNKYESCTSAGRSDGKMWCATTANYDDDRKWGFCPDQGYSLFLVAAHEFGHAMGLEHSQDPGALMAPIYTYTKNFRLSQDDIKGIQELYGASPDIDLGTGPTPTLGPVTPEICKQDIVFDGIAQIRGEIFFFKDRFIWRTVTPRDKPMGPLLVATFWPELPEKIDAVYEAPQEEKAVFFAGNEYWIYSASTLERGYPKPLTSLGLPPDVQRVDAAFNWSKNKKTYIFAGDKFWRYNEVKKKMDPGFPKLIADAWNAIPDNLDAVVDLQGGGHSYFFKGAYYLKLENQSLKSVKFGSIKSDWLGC

Row | SMILES | IC50 [1] | IC50 [2]
1 | O=C(/C=C/c1ccc(O)c(O)c1)Nc1ccc(F)cc1 | 8.31 nM | 4370 nM
2 | COc1cccc(NC(=O)/C=C/c2ccc(O)c(O)c2)c1 | 1680 nM | 5290 nM
3 | COc1ccc(NC(=O)/C=C/c2ccc(O)c(O)c2)cc1 | 3.42 nM | 5320 nM
4 | O=C(/C=C/c1ccc(O)c(O)c1)Nc1ccccc1Cl | 9.11 nM | 3710 nM
5 | O=C(/C=C/c1ccc(O)c(O)c1)Nc1cccc(F)c1 | 1820 nM | 4300 nM
6 | O=C(/C=C/c1ccc(O)c(O)c1)Nc1cccc(Cl)c1 | 1870 nM | 3810 nM
7 | Cc1ccc(NC(=O)/C=C/c2ccc(O)c(O)c2)cc1 | 3.55 nM | 4830 nM
8 | O=C(/C=C/c1ccc(O)c(O)c1)Nc1ccc(Cl)cc1 | 8.95 nM | 3960 nM
9 | Cc1ccccc1NC(=O)/C=C/c1ccc(O)c(O)c1 | 5.97 nM | 4710 nM
10 | Cc1cccc(NC(=O)/C=C/c2ccc(O)c(O)c2)c1 | 1720 nM | 4800 nM
11 | O=C(/C=C/c1ccc(O)c(O)c1)Nc1ccccc1F | 8.92 nM | 4250 nM
12 | COc1ccccc1NC(=O)/C=C/c1ccc(O)c(O)c1 | 5.27 nM | 5250 nM
13 | O=C(/C=C/c1ccccc1)NCCc1ccccc1 | 9.13 nM | 3250 nM
14 | O=C(/C=C/c1ccccc1)Nc1ccc(O)cc1 | 5.28 nM | 5400 nM
15 | O=C(/C=C/c1cccc(O)c1)Nc1ccc(Cl)cc1 | 9.11 nM | 3500 nM
16 | O=C(/C=C/c1ccc(O)cc1)NCc1ccccc1 | 8.32 nM | 3140 nM
17 | COc1cccc(NC(=O)/C=C/c2ccc(O)cc2)c1 | 1760 nM | 5220 nM
18 | COc1ccc(NC(=O)/C=C/c2ccc(O)cc2)cc1 | 4.09 nM | 5290 nM
19 | Cc1cccc(NC(=O)/C=C/c2ccc(O)cc2)c1 | 1750 nM | 4880 nM
20 | O=C(/C=C/c1ccc(O)cc1)Nc1ccccc1F | 9.01 nM | 4230 nM
21 | O=C(/C=C/c1ccc(O)cc1)Nc1cccc(F)c1 | 1580 nM | 4430 nM

Row | SMILES | IC50 [1] | IC50 [2]
22 | O=C(/C=C/c1cccc(O)c1)NCc1ccccc1 | 8.44 nM | 3600 nM
23 | O=C(/C=C/c1cccc(O)c1)NCCc1ccccc1 | 8.46 nM | 3600 nM
24 | O=C(/C=C/c1cccc(O)c1)Nc1ccccc1O | 5.57 nM | 5210 nM
25 | COc1cccc(NC(=O)/C=C/c2cccc(O)c2)c1 | 1670 nM | 5160 nM
26 | Cc1ccccc1NC(=O)/C=C/c1cccc(O)c1 | 5.73 nM | 4740 nM
27 | O=C(/C=C/c1cccc(O)c1)Nc1ccccc1F | 9.09 nM | 4120 nM
28 | O=C(/C=C/c1cccc(O)c1)Nc1cccc(F)c1 | 1870 nM | 4210 nM
29 | O=C(/C=C/c1cccc(O)c1)Nc1ccc(F)cc1 | 8.59 nM | 4390 nM
30 | O=C(/C=C/c1cccc(O)c1)Nc1ccccc1Cl | 9.41 nM | 3260 nM
31 | O=C(/C=C/c1ccc(O)c(O)c1)Nc1ccccc1 | 8.05 nM | 3240 nM
32 | O=C(/C=C/c1ccc(O)cc1)NCCc1ccccc1 | 8.37 nM | 3220 nM
33 | O=C(/C=C/c1ccc(O)c(O)c1)Nc1ccccc1O | 5.09 nM | 5620 nM
34 | O=C(/C=C/c1ccc(O)c(O)c1)NCc1ccccc1 | 8.22 nM | 3250 nM
35 | O=C(/C=C/c1ccc(O)c(O)c1)Nc1cccc(O)c1 | 1590 nM | 5770 nM
36 | O=C(/C=C/c1ccc(O)c(O)c1)Nc1ccc(O)cc1 | 3.28 nM | 5830 nM
37 | O=C(/C=C/c1cccc(O)c1)Nc1ccccc1 [3-HYDROXY-CINNAMANILIDE] | 8.41 nM | 3400 nM
38 | O=C(/C=C/c1ccc(O)c(O)c1)NCCc1ccccc1 [CAFFEIC ACID PHENETHYL AMIDE] | 8.2 nM | 3300 nM
39 | O=C(O)/C=C/c1ccc(O)c(O)c1 [CAFFEIC ACID] | 24.3 nM | 239 nM
40 | Cc1cccc(NC(=O)/C=C/c2ccccc2)c1 [N-M-TOLYLCINNAMAMIDE] | 1950 nM | 4590 nM
41 | Cc1ccccc1NC(=O)/C=C/c1ccccc1 [N-O-TOLYLCINNAMAMIDE] | 6.41 nM | 4520 nM
42 | Cc1ccc(NC(=O)/C=C/c2ccccc2)cc1 [N-P-TOLYLCINNAMAMIDE] | 5.46 nM | 4670 nM
